Source: patent US20110212892A1, “AGENT FOR TREATMENT OF DIABETES” (Dainippon Sumitomo Pharma Co., Ltd., priority 2008, published 2011)

How the values were obtained:
Assay type in all cases: in vivo
[1] = tested on: db/db mice; assay: HbA1c change to Day 33 in db/db mice given agents in feed (Example 1-2); settings: start of experiment to Day 33, feed with 0.02 (w/w) % Compound A and/or 0.06 (w/w) % sitagliptin; for Amounts of change in HbA1c before and after treatment: mean ± SD, n = 8
From the text: (§1) The antidiabetic action resulting from the combination of an insulin secretagogue (DPP-4 inhibitor) and Compound A was studied by using db/db mice (8 weeks old, male, CLEA Japan, Inc.). The db/db mice were allocated to 4 groups (8 mice/group). The mice in Group 1 were given powdered feed (control), Group 2 were given powdered feed containing 0.02 (w/w) % of Compound A, Group 3 were given powdered feed containing 0.06 (w/w) % of sitagliptin, and Group 4 were given powdered feed containing 0.02 (w/w) % of Compound A and 0.06 (w/w) % of sitagliptin. In addition, the powdered feed mentioned-above were all the same (i.e. trade name: CE-2, CLEA Japan, Inc.). An oral glucose tolerance test was performed on Day 28. To be more specific, on the day before the test, the mice were fasted overnight; and on the test day, 2 g/kg of glucose was administered by gavage to study the changes in blood glucose levels. Glycosylated hemoglobin (hereinafter, referred to as “HbAlc”) was measured on Day 33.

[2] = tested on: C57BL/KsJ-db/db mice; assay: Blood insulin after glibenclamide administration in db/db mice repeatedly given Compound A (Example 1-1); settings: vehicle or Compound A 30 mg/kg once a day 15 days, next day vehicle or glibenclamide 10 mg/kg by gavage, mean ± SD, n = 8
Procedure: The antidiabetic action resulting from the combination of an insulin secretagogue (SU drug) and Compound A was studied by using C57BL/KsJ-db/db mice (hereinafter, referred to as “db/db mice”) (9 weeks old, male, CLEA Japan, Inc.) as a model of type 2 diabetes. The db/db mice were allocated to 4 groups (8 mice/group), and each group was put into a cage provided with feed. Among the 4 groups, a vehicle (0.5% methylcellulose solution) was administered to Groups 1 and 2 by gavage once a day for 15 days, and Compound A (30 mg/kg) was administered to Groups 3 and 4 under the same condition as Groups 1 and 2. On the next day after the last administration, the vehicle was administered to Groups 1 and 3, and glibenclamide (10 mg/kg) was administered to Groups 2 and 4, both by gavage; then the feed were removed from the cages and the changes in blood glucose levels were studied in each group.
As a result, blood insulin level was higher in Group 4 (i.e. repeatedly administered with Compound A and then with glibenclamide) than in Groups 1 and 2 (i.e. repeatedly administered with the vehicle).

[3] = tested on: C57BL/KsJ-db/db mice; assay: Blood glucose after glibenclamide administration in db/db mice repeatedly given Compound A (Example 1-1); settings: for Blood glucose level after the glibenclamide administration (relative value when blood glucose level at 0 hr is 100%) / Area under the curve of blood glucose level after the glibenclamide administration (relative value when blood glucose level at 0 hr is 100%): vehicle or Compound A 30 mg/kg once a day 15 days, next day vehicle or glibenclamide 10 mg/kg by gavage, n = 8; for Blood glucose level after the glibenclamide administration (relative value when blood glucose level at 0 hr is 100%): feed removed; for Blood glucose level after the glibenclamide administration (relative value when blood glucose level at 0 hr is 100%) / Blood glucose level before the glibenclamide administration / Area under the curve of blood glucose level after the glibenclamide administration (relative value when blood glucose level at 0 hr is 100%): mean ± SD; for Blood glucose level before the glibenclamide administration: Compound A 30 mg/kg by gavage once a day for 15 days, next day, before glibenclamide/vehicle, n = 8, 30 mg/kg; for Decrease of blood glucose levels after glibenclamide/vehicle administration (in words): vehicle or Compound A 30 mg/kg 15 days, then vehicle or glibenclamide 10 mg/kg
Procedure: The antidiabetic action resulting from the combination of an insulin secretagogue (SU drug) and Compound A was studied by using C57BL/KsJ-db/db mice (hereinafter, referred to as “db/db mice”) (9 weeks old, male, CLEA Japan, Inc.) as a model of type 2 diabetes. The db/db mice were allocated to 4 groups (8 mice/group), and each group was put into a cage provided with feed. Among the 4 groups, a vehicle (0.5% methylcellulose solution) was administered to Groups 1 and 2 by gavage once a day for 15 days, and Compound A (30 mg/kg) was administered to Groups 3 and 4 under the same condition as Groups 1 and 2. On the next day after the last administration, the vehicle was administered to Groups 1 and 3, and glibenclamide (10 mg/kg) was administered to Groups 2 and 4, both by gavage; then the feed were removed from the cages and the changes in blood glucose levels were studied in each group. […]

[4] = tested on: db/db mice; assay: Blood glucose level on Day 11 in db/db mice, Compound A and metformin (Example 1-3); settings: Compound A 30 mg/kg and/or metformin 300 mg/kg by gavage once a day for 14 days; for Blood glucose level: Day 11, mean ± SD, n = 8, in mg/dL (unit assumed)
Procedure: (§2) The antidiabetic action resulting from the combination of an insulin-sensitizing drug and a biguanide was studied by using db/db mice (8 weeks old, male, CLEA Japan, Inc.). The db/db mice were allocated to 4 groups (8 mice/group). Among the 4 groups, a vehicle (0.5% methylcellulose solution) was administered to Group 1 by gavage once a day for 14 days from the day of grouping (Day 1); Compound A (30 mg/kg) was administered to Group 2, metformin (300 mg/kg) was administered to Group 3, and Compound A (30 mg/kg) and metformin (300 mg/kg) were administered to Group 4 under the same condition as Group 1. Blood glucose and HbAlc levels were measured on Day 11 and Day 15, respectively.

[5] = tested on: db/db mice; assay: HbA1c change Day 1 to Day 15 in db/db mice, Compound A and metformin (Example 1-3); settings: Compound A 30 mg/kg and/or metformin 300 mg/kg by gavage once a day for 14 days
Procedure: as §2

[6] = tested on: db/db mice; assay: Oral glucose tolerance test on Day 28 in db/db mice given agents in feed (Example 1-2); settings: feed with 0.02 (w/w) % Compound A and/or 0.06 (w/w) % sitagliptin; for Blood glucose level after the glucose load on Day 28 / Area under the curve of blood glucose level after the glucose load on Day 28: OGTT 2 g/kg glucose, mean ± SD, n = 8; for Blood glucose level after the glucose load on Day 28: fasted overnight; for Area under the curve of blood glucose level in oral glucose tolerance test versus control (in words): Day 28
From the text: as §1

Compound	Change in HbA1c versus control (in words) [1]	Amounts of change in HbA1c before and after treatment [1] [%]	Blood insulin level after the glibenclamide administration (relative value when insulin level at 0 hr is 100%) ([2]; 1 hr) [%]	Blood insulin level after the glibenclamide administration (relative value when insulin level at 0 hr is 100%) ([2]; 2 hr) [%]	Area under the curve of blood insulin level after the glibenclamide administration (relative value when insulin level at 0 hr is 100%) [2] [% · hr]	Blood glucose level after the glibenclamide administration (relative value when blood glucose level at 0 hr is 100%) ([3]; 1 hr) [%]	Blood glucose level after the glibenclamide administration (relative value when blood glucose level at 0 hr is 100%) ([3]; 2 hr) [%]	Blood glucose level after the glibenclamide administration (relative value when blood glucose level at 0 hr is 100%) ([3]; 4 hr) [%]	Blood glucose level after the glibenclamide administration (relative value when blood glucose level at 0 hr is 100%) ([3]; 6 hr) [%]	Decrease of blood glucose levels after glibenclamide/vehicle administration (in words) [3]	Area under the curve of blood glucose level after the glibenclamide administration (relative value when blood glucose level at 0 hr is 100%) [3] [% · hr]	Blood glucose level (Day 11) and amount of HbA1c change (Day 1 to Day 15); single agents versus vehicle, combination versus single agents (in words) [4]	Blood glucose level [4]	Amount of change in HbA1c [5]	Blood glucose level after the glucose load on Day 28 ([6]; 0 min) [mg/dL]	Blood glucose level after the glucose load on Day 28 ([6]; 10 min) [mg/dL]	Blood glucose level after the glucose load on Day 28 ([6]; 30 min) [mg/dL]	Blood glucose level after the glucose load on Day 28 ([6]; 60 min) [mg/dL]	Blood glucose level after the glucose load on Day 28 ([6]; 90 min) [mg/dL]	Blood glucose level after the glucose load on Day 28 ([6]; 120 min) [mg/dL]	also measured
Cc1ccc(C(=O)c2cccn2C/C=C/c2ccc(COC(C)(C)C(=O)O)cc2)cc1 [Compound A, 2-methyl-2-[(4-{(1E)-3-[2-(4-methylbenzoyl)-1H-pyrrol-1-yl]prop-1-en-1-yl}benzyl)oxy]propanoic acid]	A difference was not observed	1.28 ± 0.53	55.9 ± 15.8	61.6 ± 17.3	136.8 ± 17.7	100.2 ± 10.2	96.1 ± 14.2	93.8 ± 15.9	93.6 ± 14.1	did not	575.6 ± 73.0	significant decrease of blood glucose level and amount of HbAlc change	321.9 ± 43.5	0.93 ± 0.28	146 ± 33	500 ± 62	633 ± 57	566 ± 41	457 ± 74	412 ± 82	Blood glucose level before the glibenclamide administration ([3]; group later given glibenclamide): 323.4 ± 75.7 mg/dL; Blood glucose level before the glibenclamide administration ([3]; group later given vehicle): 332.1 ± 90.8 mg/dL; Area under the curve of blood glucose level in oral glucose tolerance test versus control (in words) [6]: significant difference was not observed; Area under the curve of blood glucose level after the glucose load on Day 28 [6]: 59692 ± 4741 mg·min/dL
COc1ccc(Cl)cc1C(=O)NCCc1ccc(S(=O)(=O)NC(=O)NC2CCCCC2)cc1 [Glibenclamide, glibenclamide, reference compound]	–	–	75.1 ± 25.1	83.3 ± 21.4	166.7 ± 31.5	96.2 ± 7.7	91.3 ± 5.9	82.9 ± 12.7	80.9 ± 12.1	no decrease in blood glucose levels	530.0 ± 35.1	–	–	–	–	–	–	–	–	–	–
CN(C)C(=N)N=C(N)N [Metformin, metformin, reference compound]	–	–	–	–	–	–	–	–	–	–	–	significant decrease of blood glucose level and amount of HbAlc change	323.5 ± 66.3	1.09 ± 0.16	–	–	–	–	–	–	–
N[C@@H](CC(=O)N1CCn2c(nnc2C(F)(F)F)C1)Cc1cc(F)c(F)cc1F [Sitagliptin, sitagliptin, reference compound]	A difference was not observed	1.68 ± 0.51	–	–	–	–	–	–	–	–	–	–	–	–	167 ± 15	542 ± 81	588 ± 125	510 ± 95	455 ± 100	408 ± 107	Area under the curve of blood glucose level in oral glucose tolerance test versus control (in words) [6]: significant difference was not observed; Area under the curve of blood glucose level after the glucose load on Day 28 [6]: 57680 ± 10679 mg·min/dL
